Patent US11813277B2, “Methods and agents for modulating inflammation” (The Regents of the University of California, priority 2018, dated 2023)

Experiments:
CPT-1 [1] = biological target: T1, CPT-1 (Homo sapiens, UniProt P50416); assay: Palmitoyl CoA-driven respiration in permeabilized HepG2 cells; format: cell-based; design: endogenous in cells; host or cells: HepG2 (A5)
T1 sequence (P50416 1-773): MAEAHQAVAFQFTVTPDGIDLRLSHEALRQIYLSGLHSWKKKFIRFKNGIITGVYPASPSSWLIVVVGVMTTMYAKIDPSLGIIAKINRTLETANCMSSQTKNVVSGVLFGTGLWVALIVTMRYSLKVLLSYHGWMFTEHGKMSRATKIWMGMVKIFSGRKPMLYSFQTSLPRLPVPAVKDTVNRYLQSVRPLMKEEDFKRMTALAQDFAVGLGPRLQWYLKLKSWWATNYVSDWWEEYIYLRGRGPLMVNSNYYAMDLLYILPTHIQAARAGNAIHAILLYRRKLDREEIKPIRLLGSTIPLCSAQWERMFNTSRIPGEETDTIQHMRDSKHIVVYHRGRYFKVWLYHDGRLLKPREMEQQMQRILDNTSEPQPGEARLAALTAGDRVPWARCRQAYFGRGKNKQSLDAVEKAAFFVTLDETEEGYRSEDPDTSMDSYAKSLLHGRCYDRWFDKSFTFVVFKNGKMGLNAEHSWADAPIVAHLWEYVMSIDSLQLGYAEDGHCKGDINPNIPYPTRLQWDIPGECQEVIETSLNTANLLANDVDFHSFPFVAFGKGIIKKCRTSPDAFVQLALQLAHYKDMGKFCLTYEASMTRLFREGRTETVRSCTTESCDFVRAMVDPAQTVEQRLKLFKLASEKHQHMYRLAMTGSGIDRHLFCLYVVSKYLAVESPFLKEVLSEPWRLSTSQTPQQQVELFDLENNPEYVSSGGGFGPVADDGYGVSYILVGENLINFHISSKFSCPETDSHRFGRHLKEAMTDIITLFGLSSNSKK

BMDMs = details: concentrations as high as 100 μM etomoxir; cited from earlier work
[2] = system: M(IL-4) polarization of BMDMs; assay: Flow cytometry of IL-4-associated cell surface markers in BMDMs; format: cell-based, mouse
Experimental: For all gene expression and flow cytometry experiments described below, day 6 BMDM were plated at 3×10^5 cell/well in 12-well plates. The next day, cells were treated with appropriate compounds (and duration as indicated in figures and below) in DMEM supplemented with 5% FBS, 2 mM L-glutamine, 100 units/mL, 100 μg/mL penicillin/streptomycin, 500 μM of sodium pyruvate and 5% v/v conditioned media containing macrophage colony stimulating factor (M-CSF).
For flow cytometry experiments involving etomoxir (FIG. 1G, FIG. 2A, FIG. 2D, FIG. 3A, FIG. 3B, FIG. 3G, FIG. 3H): BMDMs were mock-treated (media replacement only) or treated with 20 ng/mL of IL-4±3 μM or 200 μM of etomoxir for 48 hr. When measuring expression of M(IL-4)-associated genes in response to etomoxir (FIG. 1H, FIG. 2B), BMDMs were mock-treated or treated with 20 ng/mL of IL4±etomoxir as indicated for 24 hr.
For experiments involving respiratory chain inhibitors: BMDMs were mock-treated (media replacement only) or treated with 20 ng/mL of IL4±1.2 μM oligomycin (Oligo), 200 nM rotenone (Rot), 200 nM antimycin A (AntiA), 100 nM piericidin A (PierA), or 5 μM carboxyatractylate (CAT) for either 24 (FIG. 4G, FIG. 4H, FIG. 6G) or 48 hr (FIG. 4F, FIG. 7D). All inhibitors were given as co-treatments simultaneously with IL-4.
For experiments involving CoA supplementation (FIG. 10A, FIG. 10B, FIG. 10C, FIG. 10D, FIG. 10E, FIG. 9C, FIG. 9D): BMDMs were mock-treated (media replacement only) or treated with 20 ng/mL of IL4±etomoxir (concentration indicated in figures)±CoA (concentration indicated in figures) for 48 hr. Etomoxir and CoA were given as co-treatments simultaneously with IL-4.
Prior to FACS analysis, BMDMs were detached using 350 μL of Accutase, followed by two washes with FACS buffer (PBS+1% (v/v) BSA+0.05% (w/v) sodium azide). Anti-mouse CD16/32 antibody was used at a dilution of 1:500, while all other antibodies were used at a dilution of 1:250. All flow cytometry data were captured using BD FACSVerse flow cytometer and analyzed using the FlowJo X 10.0.7r2 software. In all, 2×104 live events were acquired for each sample (gated on DAPIneg). For analysis, CD206+/CD71+ and CD206+/CD301+ populations were gated based on Fluorescence Minus One (FMO) controls.

CPT-1 [3] = biological target: T1, CPT-1; assay: Palmitoyl CoA-driven respiration in permeabilized A549 cells; format: cell-based; design: endogenous in cells; host or cells: A549 (A6)
[4] = system: phosphate (Pi) transporter; assay: Phosphate transporter assay (mitochondrial swelling); format: biochemical, rat; details: 250 μM etomoxir, 100 μM NEM, 10 μM mersalyl
Experimental: Phosphate transport was measured by monitoring swelling of de-energized mitochondria in isotonic potassium phosphate medium based upon principles described by Coty, W. A. and Pedersen, P. L. (1975) Phosphate transport in rat liver mitochondria. Kinetics, inhibitor sensitivity, energy requirements, and labeled components. Mol Cell Biochem. 9, 109-24. As the phosphate carrier acts as electroneutral symporter with protons, the process is self-restricting due to generation of an opposing pH gradient. […] In the presence of nigericin, the proton fluxes cycle resulting in electro- and pH-neutral transport of potassium phosphate down its concentration gradient into the mitochondrial matrix, resulting in osmotic accumulation of water. Under these conditions, transport is limited by the activity of phosphate carrier, and can be recorded as mitochondrial swelling (a decrease in light scattering).
The measurements were performed in an LS-50B spectrofluorometer (Perkin-Elmer) at 540 nm. Assay medium contained 125 mM potassium phosphate, pH 7.2, 0.5 mM EGTA, and 2 μM rotenone. Mouse liver mitochondria (0.5 mg/ml) were treated with 250 μM etomoxir, 100 μM N-ethylmaleimide (NEM) (Klingenberg, M., Durand, R., and Guerin, B. (1974) Analysis of the reactivity of SH-reagents with the mitochondrial phosphate carrier. Eur J Biochem, 42, 135-150) or 10 μM mersalyl (Paradies, G. and Ruggiero, F. M. (1991) Effect of aging on the activity of the phosphate carrier and on the lipid composition in rat liver mitochondria. Arch Biochem Biophys. 284, 332-337) and the reaction was started with 5 μM nigericin. Typical traces from 3 experiments are shown. To establish the maximally swollen state of mitochondria, 80 μg/ml alamethicin was used.

SMILES: CCOC(=O)[C@@]1(CCCCCCOc2ccc(Cl)cc2)CO1 [etomoxir]
- EC50, FCCP-stimulated palmitoyl CoA-driven respiration (CPT-1 [1]): nanomolar
- concentration of saturable effect (CPT-1 [1]): less than 3 μM
- respiration in BMDMs (BMDMs): lack of significant changes in respiration
- CD206+/CD71+ expression in WT and Cpt1a-/- macrophages ([2]; 3 μM etomoxir): lack of an effect
- expression levels of IL-4-induced CD206, CD71, CD301 ([2]; 3 μM etomoxir, IL-4 20 ng/mL): no effect
- CD206+/CD71+ expression in WT and Cpt1a-/- macrophages ([2]; 200 μM etomoxir): robust block
- population of CD206+/CD71+ cells ([2]; 200 μM etomoxir, IL-4): strongly reduced
- population of CD301+ cells ([2]; 200 μM etomoxir, IL-4): little effect
- population of CD206+/CD71+ cells ([2]; 500 μM CoA, etomoxir 3-100 μM): proportionally decreased
- concentration at which significant changes in macrophage polarization were observed ([2]; CD206+/CD71+, IL-4): > 100 µM
- EC50, FCCP-stimulated palmitoyl CoA-driven respiration (CPT-1 [3]): nanomolar
- concentration of saturable effect (CPT-1 [3]): less than 3 μM
- Pi transporter activity (rate of swelling) [4]: does not inhibit
- Pi transporter activity (rate of swelling) ([4]; listed as Etomoxir): does not affect the rate of swelling
